Reference: patent publication US10759813B2, “Neprilysin inhibitors” (THERAVANCE BIOPHARMA R&D IP, LLC, priority 2010, dated 2020)

Target: human neprilysin (EC 3.4.24.11; NEP) (Homo sapiens (Human), UniProt P08473)
Experiment: In vitro enzyme inhibition assay at human NEP (fluorogenic peptide substrate)
Type: biochemical
Details: pKi values at human NEP, recombinant human NEP
In short: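 Recombinant human NEP preincubated 30 min at 37 °C with compound (10 μM down to pM), then 10 μM Mca-D-Arg-Arg-Leu-Dap-(Dnp)-OH in 50 mM HEPES pH 7.5, 100 mM NaCl, 0.01% Tween-20, 10 μM ZnSO4. Stopped after 20 min with acetic acid; fluorescence Ex320/Em405; Ki by nonlinear fit, reported as pKi.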

Chain of human neprilysin (EC 3.4.24.11; NEP) (P08473 52-750): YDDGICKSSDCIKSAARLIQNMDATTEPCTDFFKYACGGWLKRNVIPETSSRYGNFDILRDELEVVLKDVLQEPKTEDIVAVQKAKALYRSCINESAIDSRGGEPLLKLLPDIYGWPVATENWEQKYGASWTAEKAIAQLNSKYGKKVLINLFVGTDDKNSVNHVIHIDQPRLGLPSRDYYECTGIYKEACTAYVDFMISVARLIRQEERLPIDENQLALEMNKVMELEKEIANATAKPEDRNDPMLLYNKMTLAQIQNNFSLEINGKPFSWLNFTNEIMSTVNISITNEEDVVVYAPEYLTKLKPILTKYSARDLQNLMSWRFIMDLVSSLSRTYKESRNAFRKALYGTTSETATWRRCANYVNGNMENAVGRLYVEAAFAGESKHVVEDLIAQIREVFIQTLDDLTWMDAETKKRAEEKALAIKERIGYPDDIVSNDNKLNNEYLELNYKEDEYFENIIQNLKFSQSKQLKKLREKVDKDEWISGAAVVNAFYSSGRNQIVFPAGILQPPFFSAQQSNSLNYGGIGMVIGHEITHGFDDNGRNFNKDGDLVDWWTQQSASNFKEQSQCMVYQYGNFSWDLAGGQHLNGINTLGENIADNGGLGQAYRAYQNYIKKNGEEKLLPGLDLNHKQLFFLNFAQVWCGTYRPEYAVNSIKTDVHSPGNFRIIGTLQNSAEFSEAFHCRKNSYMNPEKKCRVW

| SMILES | pKi | Ki |
| --- | --- | --- |
| CC(C)(O)c1cc(C(=O)N[C@H](Cc2ccc(-c3cccc(Cl)c3)cc2)C[C@@H](O)C(=O)O)on1 [Example 18-13, (2R,4R)-5-(3′-Chloro-biphenyl-4-yl)-2-hydroxy-4-{[3-(1-hydroxy-1-methyl-ethyl)-isoxazole-5-carbonyl]-amino}-pentanoic acid] | ≥9.0 |  |
| O=C(N[C@H](Cc1ccc(-c2ccccc2)cc1)CC(O)C(=O)O)c1cc(-c2ccccc2)n[nH]1 (stereo partly drawn) [Example 15-76, (R)-5-Biphenyl-4-yl-2-hydroxy-4-[(5-phenyl-2H-pyrazole-3-carbonyl)-amino]-pentanoic acid] |  | 1.26 to 10 nM |
| O=C(N[C@H](Cc1ccc(-c2cccc(Cl)c2)cc1)C[C@@H](O)C(=O)O)c1cc(Cl)no1 [Example 18-9, (2R,4R)-5-(3′-Chloro-biphenyl-4-yl)-4-[(3-chloro-isoxazole-5-carbonyl)-amino]-2-hydroxy-pentanoic acid] | ≥9.0 |  |
| CCCCc1cc(C(=O)N[C@H](Cc2ccc(-c3ccccc3)cc2)CC(O)C(=O)O)[nH]n1 (stereo partly drawn) [Example 15-75, (R)-5-Biphenyl-4-yl-4-[(5-butyl-2H-pyrazole-3-carbonyl)-amino]-2-hydroxy-pentanoic acid] |  | 1.26 to 10 nM |
| Cc1ccc(Cl)cc1-c1ccc(C[C@H](C[C@@H](O)C(=O)O)NC(=O)c2cn(O)nn2)cc1 [Example 19-12, (2R,4R)-5-(5′-Chloro-2′-methyl-biphenyl-4-yl)-2-hydroxy-4-[(1-hydroxy-1H-[1,2,3]triazole-4-carbonyl)-amino]-pentanoic acid] | ≥9.0 |  |
| O=C(N[C@H](Cc1ccc(-c2ccccc2)cc1)CC(O)C(=O)O)c1cc(-c2cnccn2)[nH]n1 (stereo partly drawn) [Example 15-22, (R)-5-Biphenyl-4-yl-2-hydroxy-4-[(5-pyrazin-2-yl-1H-pyrazole-3-carbonyl)amino]-pentanoic acid] |  | 1.26 to 10 nM |
| O=C(O)Cc1cc(C(=O)N[C@H](Cc2ccc(-c3ccccc3)cc2)C[C@@H](O)C(=O)O)n[nH]1 [Example 15-2, (2R,4R)-5-Biphenyl-4-yl-4-[(5-carboxymethyl-1H-pyrazole-3-carbonyl)amino]-2-hydroxy-pentanoic acid] |  | 1.26 to 10 nM |
| O=C(O)c1cnc(C(=O)N[C@H](Cc2ccc(-c3ccccc3)cc2)CC(O)C(=O)O)cn1 (stereo partly drawn) [Example 13-1, 5-((R)-1-Biphenyl-4-ylmethyl-3-carboxy-3-hydroxypropylcarbamoyl)-pyrazine-2-carboxylic acid] |  | 1.26 to 10 nM |
| C[C@@H](O)c1cc(C(=O)N[C@H](Cc2ccc(-c3ccccc3)cc2)C[C@@H](O)C(=O)O)[nH]n1 [Example 15-110, (2R,4R)-5-Biphenyl-4-yl-2-hydroxy-4-{[5-((R)-1-hydroxyethyl)-2H-pyrazole-3-carbonyl]amino}pentanoic acid] |  | 1.26 to 10 nM |
| O=C(N[C@H](Cc1ccc(-c2cc(Cl)ccc2F)cc1)C[C@@H](O)C(=O)O)c1cn(O)nn1 [Example 19-6, (2R,4R)-5-(5′-Chloro-2′-fluorobiphenyl-4-yl)-2-hydroxy-4[(1-hydroxy-1H-[1,2,3]triazole-4-carbonyl)-amino]-pentanoic acid] | ≥9.0 |  |
| CNC(=O)c1cc(C(=O)N[C@H](Cc2ccc(-c3ccccc3)cc2)C[C@@H](O)C(=O)O)[nH]n1 [Example 15-60, (2R,4R)-5-Biphenyl-4-yl-2-hydroxy-4-[(5-methylcarbamoyl-2H-pyrazole-3-carbonyl)-amino]pentanoic acid] | ≥9.0 |  |
| O=C(N[C@H](Cc1ccc(-c2cccc(Cl)c2)cc1)C[C@@H](O)C(=O)O)c1cc(-c2cccnc2)[nH]n1 [Example 18-34, (2R,4R)-5-(3′-Chlorobiphenyl-4-yl)-2-hydroxy-4-[(5-pyridin-3-yl-1H-pyrazole-3-carbonyl)-amino]-pentanoic acid] | ≥9.0 |  |
| O=C(N[C@H](Cc1ccc(-c2ccccc2)cc1Cl)C[C@@H](O)C(=O)O)c1cc(-c2ccccn2)n[nH]1 [Example 20-9, (2R,4R)-5-(3-Chloro-biphenyl-4-yl)-2-hydroxy-4-[(5-pyridin-2-yl-2H-pyrazole-3-carbonyl)-amino]-pentanoic acid] |  | 1.26 to 10 nM |
| CC(C)Cc1cc(C(=O)N[C@H](Cc2ccc(-c3cccc(Cl)c3)cc2)C[C@@H](O)C(=O)O)on1 [Example 18-12, (2R,4R)-5-(3′-Chloro-biphenyl-4-yl)-2-hydroxy-4-[(3-isobutyl-isoxazole-5-carbonyl)-amino]-pentanoic acid] | ≥9.0 |  |
| O=C(N[C@H](Cc1ccc(-c2cccc(Cl)c2)cc1)C[C@@H](O)C(=O)O)c1cc(-c2ccccc2O)n[nH]1 [Example 18-17, (2R,4R)-5-(3′-Chlorobiphenyl-4-yl)-2-hydroxy-4-{[5-(2-hydroxy-phenyl)-2H-pyrazole-3-carbonyl]-amino}-pentanoic acid] | ≥9.0 |  |
| COCCN(C)C(=O)c1cc(C(=O)N[C@H](Cc2ccc(-c3ccccc3)cc2)C[C@H](O)C(=O)O)[nH]n1 [Example 3-C, (2S,4R)-5-Biphenyl-4-yl-2-hydroxy-4-({5-[(2-methoxyethyl)methylcarbamoyl]-2H-pyrazole-3-carbonyl}amino)pentanoic Acid] |  | 1.26 to 10 nM |
| O=C(N[C@H](Cc1ccc(-c2cccc(Cl)c2)cc1)C[C@@H](O)C(=O)O)c1nn(-c2ccccc2Cl)c(=O)[nH]1 [Example 18-43, (2R,4R)-5-(3′-Chloro-biphenyl-4-yl)-4-{[1-(2-chloro-phenyl)-5-oxo-4,5-dihydro-1H-[1,2,4]triazole-3-carbonyl]-amino}-2-hydroxy-pentanoic acid] | ≥9.0 |  |
| O=C(N[C@H](Cc1ccc(-c2ccccc2)cc1)C[C@@H](O)C(=O)O)c1cnc(O)nc1 [Example 6-B, (2R,4R)-5-Biphenyl-4-yl-2-hydroxy-4-[(2-hydroxypyrimidine-5-carbonyl)amino]pentanoic Acid] | ≥9.0 |  |
| O=C(N[C@H](Cc1ccc(-c2ccccc2)cc1)CC(O)C(=O)O)c1cc(C(=O)O)n(Cc2ccc(Cl)cc2)n1 (stereo partly drawn) [Example 15-15, 5-((R)-1-Biphenyl-4-ylmethyl-3-carboxy-3-hydroxy-propylcarbamoyl)-2-(4-chlorobenzyl)-2H-pyrazole-3-carboxylic acid] |  | 1.26 to 10 nM |
| O=C(N[C@H](Cc1ccc(-c2ccccc2)cc1)C[C@@H](O)C(=O)O)c1cc2n(n1)C[C@H](O)COc1ccccc1-2 [Example 16-4, (2R,4R)-5-Biphenyl-4-yl-2-hydroxy-4-[((S)-8-hydroxy-10-oxa-5,6-diaza-tricyclo[9.4.0.02,6]pentadeca-1(15),2,4,11,13-pentaene-4-carbonyl)-amino]-pentanoic acid] |  | 1.26 to 10 nM |
| O=C(NC1CC1)c1cc(C(=O)N[C@H](Cc2ccc(-c3ccccc3)cc2)C[C@@H](O)C(=O)O)[nH]n1 [Example 15-57, (2R,4R)-5-Biphenyl-4-yl-4-[(5-cyclopropylcarbamoyl-2H-pyrazole-3-carbonyl)-amino]-2-hydroxypentanoic acid] | ≥9.0 |  |
| Cc1nc(C(=O)N[C@H](Cc2ccc(-c3ccccc3)cc2)CC(O)C(=O)O)nn1-c1ccc(Cl)cc1 (stereo partly drawn) [Example 10-7, (R)-5-Biphenyl-4-yl-4-{[1-(4-chlorophenyl)-5-methyl-1H-[1,2,4]triazole-3-carbonyl]-amino}-2-hydroxypentanoic acid] |  | 12.6 to 100 nM |
| O=C(N[C@@H](Cc1ccc(-c2cccc(Cl)c2)cc1)C[C@@H](O)C(=O)O)c1cc(O)n(-c2cccc(Cl)c2)n1 [Example 18-39, (2R,4S)-5-(3′-Chloro-biphenyl-4-yl)-4-{[1-(3-chloro-phenyl)-5-hydroxy-1H-pyrazole-3-carbonyl]-amino}-2-hydroxy-pentanoic acid] | ≥9.0 |  |
